Measured values reported in PMC11211886 (Frontiers in Pharmacology, 2024).
Like-named read-outs stand apart in the source and are kept apart here.

Assays:
[1] = Tissue distribution in SD rats after oral dose; set-up: species or system SD rat; conditions: in vivo
Procedure: After blood collection, the rats were sacrificed, and 18 tissues, namely, brain, breast, skin, fat, testis, ovary, bladder, pancreas, skeletal muscle, heart, lung, kidney, liver, stomach, small intestine, colon, spleen, and spinal cord, were removed from the rats at designated time points. These tissues were washed with saline and dried with filter paper. […] (Cheongju-si, Korea). […] The weight of the collected samples was recorded. Samples were stored in a −20°C freezer until analysis.

CYP2C19 = biological target: T1, CYP2C19 (Homo sapiens, UniProt P33261); test: Time-dependent CYP inhibition in HLM, CYP2C19; type: in vitro ADME; conditions: 10 μM, 30 min pre-incubation with NADPH
T1 construct: tissue Life Technologies (Durham, NC, USA); host or cells: human liver microsomes
T1 sequence (P33261 whole entry): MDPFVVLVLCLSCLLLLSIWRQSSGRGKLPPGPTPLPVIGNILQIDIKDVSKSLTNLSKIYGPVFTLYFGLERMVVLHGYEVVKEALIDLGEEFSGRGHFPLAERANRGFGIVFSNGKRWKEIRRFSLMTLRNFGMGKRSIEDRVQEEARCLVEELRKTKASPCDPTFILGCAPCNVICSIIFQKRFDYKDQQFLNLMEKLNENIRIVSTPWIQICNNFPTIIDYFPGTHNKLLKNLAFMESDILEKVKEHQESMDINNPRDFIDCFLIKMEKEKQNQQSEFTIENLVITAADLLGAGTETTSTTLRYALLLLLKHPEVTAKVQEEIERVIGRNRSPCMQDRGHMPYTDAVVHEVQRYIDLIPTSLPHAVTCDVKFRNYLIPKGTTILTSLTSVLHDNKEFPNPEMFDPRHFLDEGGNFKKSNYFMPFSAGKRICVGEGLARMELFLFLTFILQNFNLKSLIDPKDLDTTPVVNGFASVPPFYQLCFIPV
Procedure: The procedure of time-dependent CYP inhibition was similar to that used for CYP reversible inhibition, as mentioned above, except that a pre-incubation step was added. […] Another appropriate volume of the NADPH-regenerating system and probe substrate were added to initiate the CYP isoform enzyme activity test step. For this step, the incubation period was 10 min, except for CYP2B6, CYP2C8, and CYP3A4/5 (probe substrate: midazolam), which was 3 min to make sure the reaction was under initial linear rates. After incubation for the designated time periods at 37°C, the ice-cold acetonitrile containing IS was added to quench the reaction. […] (Ainactivator/[…] represents the enzyme activity remaining due to the inhibition by the diluted inactivator in the enzyme activity test step, and (Ainactivator/[…] represents the remaining enzyme activity due to pre-incubation loss plus inhibition by the diluted inactivator in the enzyme activity test step.

CYP1A2 mRNA = test: in vitro; conditions: human; for EC50 at 48 h: EC50, CYP1A2 expression
Procedure: (§1) […] […] […] Enzyme activity for each CYP isoform was reported as a fold change over vehicle control and the percent of positive control (detailed calculation in Supplementary 1.1). Hepatocytes were harvested with a lysis buffer from RNeasy 96 Kit (Qiagen Inc., Germantown, MD, USA) to isolate RNA, which was analyzed by real-time quantitative polymerase chain reaction (RT-PCR). […] Emax (the maximal observed induction) and EC50 (the concentration that supports half-maximal induction) were estimated by non-linear regression of fold increase in CYP mRNA expression versus concentration plots.
(§2) % of positive control = [(fold change in treated sample)-1] / [(fold change in positive control)-1] × 100
(§3) Based on the gene expression, a minimum of 4-fold increase of positive control compared to vehicle control, a minimum of 2-fold increase of the test article compared vehicle control and increased in a concentration-dependent manner was considered as the cutoff for a positive signal in in vitro induction assay.

CYP2C8 mRNA = test: CYP induction in human hepatocytes, CYP2C8 mRNA (RT-PCR)
Procedure: as §1, §2, §3

[2] = Human PK projection by allometric scaling; conditions: allometric scaling with correction of MLP and fu
Excerpt: Translational prediction of human plasma total clearance (CL) and volume of distribution at steady state (Vss) was projected using the AS approach for different preclinical species (mice, rats, dogs, and monkeys). The mean value of unbound plasma fraction (fu) in animals was applied to transform pharmacokinetic parameters (Vss or CL) to the corresponding free drug clearance (CLu) and free drug volume of distribution (Vss,u). The CLu in preclinical species was scaled to CLu in humans according to the following equations with consideration of the maximum lifespan potential (MLP) as a correction factor according to the rule of exponents (RoEs) ([Mahmood and Balian, 1996]), and Vss,u in preclinical species was scaled to Vss,u in humans simply based on BW according to the following equations. Both CLu and Vss,u in humans were converted to CL and Vss using the mean value of fu in humans. CLu×MLP=a×BW^b, log (CLu×MLP)=log a+b log BW, Vss,u=a×BW^b, log (Vss,u)=log a+b log BW,
where BW represents the body weight of the standard species (0.02, 0.2, 10, 4, and 70 kg for mice, rats, dogs, cynomolgus monkeys, and humans, respectively), a represents allometric coefficients, and b is allometric exponents.

[3] = set-up: method as in Cao et al., 2023; conditions: single oral 30 mg, high-fat diet, ref Cao et al., 2023, cited from earlier work

## C[C@H](Nc1ncnc(N)c1C#N)c1cc2ncc(Cl)n2nc1-c1ccccc1 [Amdizalisib]
[1]; SD, female rat, PO 5 mg/kg, pancreas
  half-life: 3.38 h
[1]; SD, male rat, PO 5 mg/kg, liver
  half-life: 1.76 h
[1]; both sexes, SD, rat, po, 5 mg/kg, exposure in the intestines versus plasma
  Kp: 3 to 6
[1]; female, SD, rat, po, 5 mg/kg
  AUC(0-t): 11400 ng·h/mL
  Cmax: 993 ng/mL
[1]; female, SD, rat, po, 5 mg/kg, female rat, PO 5 mg/kg, colon, read-out: AUC0-t ratio of tissue/plasma
  Kp: 1.52
[1]; female, Sprague-Dawley, rat, po, 5 mg/kg
  Cmax: 6950 ng/g
[1]; male, SD, rat, po, 5 mg/kg
  AUC(0-t): 1380 ng·h/mL
  Cmax: 394 ng/mL
[1]; male, SD, rat, po, 5 mg/kg, Tmax
  Tmax: 1 h
[1]; male, SD, rat, po, 5 mg/kg, male rat, PO 5 mg/kg, bladder, read-out: AUC0-t ratio of tissue/plasma
  Kp: 1.08
[1]; male, SD, rat, po, 5 mg/kg, male rat, PO 5 mg/kg, pancreas, read-out: AUC0-t ratio of tissue/plasma
  Kp: 3.97
[1]; male, Sprague-Dawley, rat, po, 5 mg/kg
  Cmax: 5080 ng/g
CYP2C19
  activity loss of CYP2C19: less than 10%
CYP1A2 mRNA; both, hepatocytes, 48 h, 20 µM
  induction on CYP1A2 mRNA expression: >2-fold induction on CYP1A2, 2B6, 3A4, 2C9 mRNA expression at 20 uM
CYP1A2 mRNA; female
  EC50 at 48 h: 9.57 µM
CYP1A2 mRNA; male, 48 h, 1 µM
  Gene expression Percent of PC (%): 3.60%
CYP1A2 mRNA; male, 48 h, 3 µM
  Gene expression Percent of PC (%): 0.30%
CYP1A2 mRNA; male, 48 h, 10 µM
  Gene expression Percent of PC (%): 10.7%
CYP1A2 mRNA; male, 48 h, 20 µM
  Gene expression Percent of PC (%): 8.20%
CYP1A2 mRNA; male, 48 h, 30 µM
  Gene expression Percent of PC (%): 14.2%
CYP1A2 mRNA; male
  EC50 at 48 h: 7.73 µM
CYP2C8 mRNA; CYP 2C8, donor four, 3 µM
  Gene expression Percent of PC (%): 14.5%
CYP2C8 mRNA; female, human, 48 h, 0.3 µM
  Gene expression Percent of PC (%): 7.24%
CYP2C8 mRNA; female, human, 48 h, 3 µM
  Gene expression Percent of PC (%): 13.5%
CYP2C8 mRNA; female, human, 48 h, 20 µM
  Gene expression Percent of PC (%): 3.97%
CYP2C8 mRNA; male, human, 48 h, 3 µM
  Gene expression Percent of PC (%): 9.01%
[2]
  predicted human CL: 2.57 mL/min/kg
[3]; Chinese healthy volunteers
  median Tmax: 4 h
[3]
  effect of food on extent of oral absorption (AUC): no significant effect
  reduction of geometric mean of Cmax after food intake: 36%
